Patent US20100305074A1, “NIACIN-BASED PHARMACEUTICAL COMPOSITIONS” (priority 2007, published 2010)

Key:
[1] = test system: patients with debilitating flushing on sustained-release niacin therapy; test: Prevention of flushing in patients on sustained-release niacin therapy (Examples 1 and 3); assay type: in vivo, human; conditions: thirteen patients initiating sustained-release niacin; Aspirin 81 mg for prevention of flushing
[2] = test system: patients who developed hyperuricemia while on niacin therapy; test: Hyperuricemia on niacin therapy controlled with allopurinol (Example 7); conditions: daily dosing 25 to 200 mg to control hyperuricemia
Experimental: Two females and 15 males were given allopurinol to control the hyperuricemia (daily dosing ranged from 25 to 200 mg).

[3] = test system: patients with niacin-induced pruritis; test: Treatment of niacin-induced pruritis with an H-1 blocking agent (Example 6); assay type: in vivo, human; conditions: among the seven successful patients; morning dosing (cetrizine, fexofenadine) or evening dosing (diphenhydramine)
Experimental: Nine patients with niacin-induced pruritis were treated by recommending an H-1 blocking agent.

[4] = test system: men with low HDL and coronary artery disease; conditions: in combination with other lipid medications; HATS trial, N Engl J Med 345:1583-1592; cited from earlier work

Compound	effect on niacin-induced pruritis [3]	further results
CC(=O)Oc1ccccc1C(=O)O [Aspirin]		flushing despite prevention [1]: continued to have debilitating flushing
Oc1ncnc2[nH]ncc12 [allopurinol]		continuation of niacin therapy [2]: All were able to continue niacin therapy
O=C(O)COCCN1CCN(C(c2ccccc2)c2ccc(Cl)cc2)CC1 (stereo not drawn) [cetrizine]	resolution of pruritis	
CN(C)CCOC(c1ccccc1)c1ccccc1 [diphenhydramine]	resolution of pruritis	
CC(C)(C(=O)O)c1ccc(C(O)CCCN2CCC(C(O)(c3ccccc3)c3ccccc3)CC2)cc1 (stereo not drawn) [fexofenadine]	resolution of pruritis	
O=C(O)c1cccnc1 [niacin, 3-pyridinecarboxylic acid]		lowering of the incidence of cardiovascular events (heart attacks, strokes, and sudden death) [4]: 60-90%
